Data taken from patent publication US3968204A, “Antibiotic A-2315” (priority 1975, dated 1976).
Values after ≈ are worked out from the molar mass of the structure shown.

Assays:
[1] = test system: Staphylococcus aureus 3074; test: Disc-plate MIC; conditions: Disc-Plate Method; benzylpenicillin-resistant, methicillin-resistant
Mycobacterium avium = test: Disc-plate MIC; conditions: Disc-Plate Method
Erwinia amylovora = test: Agar-dilution MIC; type: cell-based; conditions: Agar-Dilution Method
Acute toxicity in mice = type: in vivo
Experimental: The acute toxicity of antibiotic A-2315 factor A, administered either orally or subcutaneously to mice and expressed as LDo, is greater than 500 mg./kg. The acute toxicities of the A-2315 factors, administered intraperitoneally to mice and expressed as LD50 are as follows: […]

Ruminal VFA = test: Ruminal volatile fatty acids in vivo in fistulated lambs; design: species or system sheep; conditions: 17 days
Experimental: Further evidence of the ability of the A-2315 antibiotics to increase feed-utilization efficiency is provided by an in vivo test of A-2315 factor A in sheep, using a procedure as follows:
Two groups of fistulated lambs are allowed slightly more than their normal feed ration for 17 days. Test compound is administered to one group in the feed on a g/ton basis.
The rumen fluids of both groups of animals are sampled on days 3, 7, 10, 14 and 17 of the treatment period.
The fermentation of the ruminal samples is halted by addition of meta-phosphoric acid. Each sample is diluted, centrifuged at 2000 × gravity for 10 minutes; the supernatants are analyzed for volatile fatty acids via the gas chromatographic method of E. S. Erwin, G. J. Marco and E. M. Emery in J. Dairy Sci., 44, 1768 (1966). Molar percentages of ruminal volatile fatty acids are calculated, and the effect is measured as a comparison of the molar percentages of propionic acid in treated animals to those in contemporary controls.

Salmonella typhosa [2] = test: Disc-plate MIC; conditions: Disc-Plate Method
[3] = test system: anthracnose (Colletotrichum lagenarium); type: in vivo; conditions: 400 ppm
From the text: In yet another aspect of the invention, the A-2315 antibiotics are useful as plant-fungicidal agents.

Propionibacterium acnes = test: MIC, anaerobic bacteria; type: cell-based; conditions: Cutibacterium acnes
[4] = test system: cariogenic Streptococcus sp.; test: Artificial plaque glass rod test; type: cell-based; conditions: 0.1% solution, contact with plaque-encrusted rods as little as 5 minutes
Experimental: Narrow glass rods, which extend below the surface of the nutrient broth, are inserted into the tubes. After incubation at 37°C. overnight, a layer of artificial plaque (primarily cells and dextran) forms on the surface of the rods. The rods are then transferred to solutions containing varying concentrations of test compound and are allowed to remain in contact with these solutions for periods of 5, 10, and 15 minutes. After the appropriate time has elapsed, the rods are rinsed by dipping in sterile, deionized water; the rods are then incubated overnight at 37°C. in uninoculated medium containing sucrose and bromothymol blue. Growth is detected by observing the color change of bromothymol blue from green to yellow, due to acid production by the organisms when grown in a sucrose-containing medium.

[5] = test system: Staphylococcus aureus 3055; test: Protection of mice against experimental bacterial infection; type: in vivo; conditions: Staphylococcus aureus, 3055, sc, subcutaneous, two doses
Experimental: (§1) When two doses each of A-2315 factors were administered to mice in illustrative infections, the ED50 values [effective dose in mg/kg to protect 50 percent of the test aninals; see Warren Wick, et al., J. Bacteriol.
^ 2 Infecting challenges: S. aureus 3.16 × LD50 (ip)

[6] = test system: Bacteriodes fragilis ssp. fragilis; test: MIC, anaerobic bacteria; type: cell-based
[7] = Growth performance of growing chicks; type: in vivo; conditions: 45.4 grams/ton in diet
Experimental: Still another useful property of the A-2315 antibiotics is their ability to improve growth performance in animals. For example, when A-2315 factor A was added to the diet of growing chicks at a level of 45.4 grams/ton, the average weight gain after 10 days was 159 grams, as compared with an average weight gain of 148 grams for the control group. The feed-conversion efficiency (feed/gain) for chickens fed antibiotic A-2315 factor A was 1.44; in contrast, the feed-conversion efficiency for the control group was 1.53.

[8] = test system: Staphylococcus aureus 3055; test: Agar-dilution MIC; type: cell-based; conditions: Agar-Dilution Method, benzylpenicillin-susceptible
[9] = test system: Staphylococcus aureus 3130; test: Disc-plate MIC; conditions: Disc-Plate Method; benzylpenicillin-resistant, methicillin-resistant
Salmonella typhosa [10] = test: Agar-dilution MIC; conditions: Salmonella enterica
Proteus sp. = test: Disc-plate MIC; conditions: Disc-Plate Method
Clostridium inocuum = test: MIC, anaerobic bacteria; type: cell-based
Treponema hyodysenteriae = test: Agar-dilution MIC, anaerobe; type: cell-based; conditions: Brachyspira hyodysenteriae; agar-dilution method; anaerobic
From the text: The A-2315 antibiotics are also active against anaerobic bacteria. In one aspect of this activity, the A-2315 antibiotics are active against Treponema hyodysenteriae, a cause of swine dysentery. The minimal concentrations of A-2315 factors which inhibit this organism, as determined by the agar-dilution method, are as follows: […]

Shigella flexneri = test: Disc-plate MIC; type: cell-based; conditions: Disc-Plate Method
[11] = test system: experimental bacterial infections; test: In vivo antimicrobial action in mice; conditions: subcutaneous injection
Experimental: as §1

[12] = test system: Bacteriodes fragilis ssp. thetaotamicron; test: MIC, anaerobic bacteria; type: cell-based
[13] = test system: Peptostreptococcus intermedius; test: MIC, anaerobic bacteria; type: cell-based
[14] = test system: Klebsiella pneumoniae KA14; test: Disc-plate MIC; conditions: Disc-Plate Method
Bacillus subtilis = test: Disc-plate MIC; conditions: Disc-Plate Method
Sarcina lutea = test: Disc-plate MIC; conditions: Disc-Plate Method

CC1=CC(O)CC(O)Cc2nc(co2)C(=O)NC(C)C(=O)OC(C(C)C)C(C)C=CC(=O)NCC=C1 (centres unmarked) [Factor A]
MIC [1]: 0.4 μg/disc
MIC (Mycobacterium avium): 3.13 μg/disc
MIC (Erwinia amylovora): 50 µg/mL (≈ 99.3 µM)
LD50 (Acute toxicity in mice; mouse, in vivo, ip, intraperitoneally): > 400 mg/kg
acute toxicity, LDo (Acute toxicity in mice; orally): greater than 500 mg./kg.
acute toxicity, LDo (Acute toxicity in mice; subcutaneously): greater than 500 mg./kg.
% Increase Over Control (propionic acid) (Ruminal VFA; 15g/ton in feed): 4.8%
% Increase over Control (butyric acid) (Ruminal VFA; 15g/ton in feed): 2.4%
Increase Relative to Control (butyric acid) (Ruminal VFA; 15g/ton in feed): 21.6%
Increase Relative to Control (propionic acid) (Ruminal VFA; 15g/ton in feed): 18.2%
% Butyric Acid Conc. (Ruminal VFA; 15 g/ton in feed, control 11.1): 13.5%
% Propionic Acid Conc. (Ruminal VFA; 15g/ton in feed, control 26.2): 31.0%
MIC (Salmonella typhosa [2]): 12.5 μg/disc
protection of cucumber plants [3]: moderate protection
phytotoxicity ([3]; cucumber plants): Only slight phytotoxicity
MIC (Propionibacterium acnes): 8 µg/mL (≈ 15.9 µM)
effect on cariogenic organism in artificial plaque [4]: effective
ED50 ([5]; Test I, challenge 4000 × LD50 (ip)): 90 mg/kg
ED50 ([5]; Test II, challenge 3.16 × LD50 (ip)): 45.7 mg/kg
MIC [6]: 128 µg/mL (≈ 254 µM)
average weight gain ([7]; after 10 days, control 148 grams): 159 grams
feed-conversion efficiency (feed/gain) ([7]; control 1.53): 1.44
MIC [8]: 6.25 µg/mL (≈ 12.4 µM)
MIC [9]: 0.2 μg/disc
MIC (Salmonella typhosa [10]): > 100 µg/mL
MIC (Proteus sp.): 100. μg/disc
MIC (Clostridium inocuum): 32 µg/mL (≈ 63.5 µM)
MIC (Treponema hyodysenteriae): < 0.195 µg/mL
MIC (Shigella flexneri): 1.56 μg/disc
in vivo antimicrobial action [11]: have shown in vivo antimicrobial action
MIC [12]: 128 µg/mL (≈ 254 µM)
MIC [13]: 8 µg/mL (≈ 15.9 µM)
MIC [14]: 50.0 μg/disc
MIC (Bacillus subtilis): 50. μg/disc
MIC (Sarcina lutea): 0.008 μg/disc
